Assay results published in article PMC9656702, “Unveiling a New Selenocyanate as a Multitarget Candidate with Anticancer, Antileishmanial and Antibacterial Potential” (Molecules, 2022).
Converted amounts (≈) assume the structure as drawn. Where two headings read alike, the source gives them in different places.

Legend:
S. epidermidis = experiment: MIC and MBC assay, S. epidermidis; type: cell-based, Staphylococcus epidermidis; conditions: for MIC / MBC: Staphylococcus epidermidis; for MIC: read-out: MIC S. epidermidis; for MBC: read-out: MBC S. epidermidis
Experimental: (§1) The minimum inhibitory concentration (MIC) and the minimum bactericidal concentration (MBC) values of the selenocompounds were determined in a panel of six bacterial strains as a first approach to assess their antibacterial activity. Thus, the synthesized derivatives were tested against the Gram-negative bacteria Escherichia coli (E. coli), Klebsiella pneumoniae (K. pneumoniae) and Citrobacter freundii (C. freundii); and the Gram-positive bacteria Staphylococcus aureus (S. aureus), Streptococcus faecalis (S. faecalis), and Staphylococcus epidermidis (S. epidermidis). […]
(§2) All the selenocompounds were screened for their in vitro inhibitory activity against three Gram-negative (E. coli, K. pneumoniae and C. freundii) and three Gram-positive (S. aureus, S. faecalis and S. epidermidis) bacteria. Bacterial strains were kindly provided by the Department of Microbiology and Parasitology of the University of Navarra. The bacterial cells were grown in tryptic soy agar (TSA) plates and maintained at 4 °C.
(§3) The compounds were firstly dissolved in DMSO and serially diluted in a 96-well plate in tryptic soy broth (TSB) with eleven concentrations ranging from 400 µg/mL to 0.4 µg/mL with a final volume of 100 µL. Subsequently, 100 µL of a diluted suspension of bacterial cells with an optical density of 0.125 measured at 600 nm in TSB (inoculum of approximately 10^5 CFU/mL) was added to each well and incubated at 37 °C for 24 h. After the incubation period, each well was analyzed for the presence or absence of visual growth of bacterial cells. The lowest concentration of the test compound at which no visible growth occurred was determined as the MIC values. After incubation, 10 µL of the bacterial suspension from each well that presented antibacterial activity was added to divided TSA plates and incubated at 37 °C overnight.

184B5 = experiment: MTT assay in nonmalignant mammary gland cells 184B5; type: cell-based; conditions: for IC50: read-out: IC50 184B5
Experimental: To assess their possible selectivity, the synthesized selenocompounds were then tested in a mammary gland (184B5) nonmalignant cell line, and the selectivity indexes (SI) were determined as the ratio of the IC50 values obtained for the nonmalignant cells and the homolog cancer cells.
(§4) The cell lines were obtained from the American Type Culture Collection (ATCC). All the cancer cell lines (HT-29, HCT-116, H1299, HTB-54, MDA-MB-231 and MCF-7) and the nontumorigenic cells (184B5) were maintained in RPMI 1640 medium (Gibco), supplemented with 10% fetal bovine serum (FBS; Gibco) and 1% antibiotics (10.00 units/mL penicillin and 10.00 mg/mL streptomycin; Gibco). Cells were preserved in tissue culture flasks at 37 °C and 5% CO2. Culture medium was replaced every three days.
(§5) The cytotoxic effect of each compound was initially tested at seven different concentrations ranging between 0.5 and 100 µM in the cell lines mentioned above. The cells were seeded (1 × 10^4 cells per well) in 96-well plates and incubated at 37 °C and 5% CO2 for 24 h. After attachment, cells were treated with either dimethyl sulfoxide (DMSO) or increasing concentrations of the corresponding selenocompound for 48 h. The effect of the compounds on cell viability was determined by the MTT assay. In brief, 20 µL of MTT (5 mg/mL) was added to each well 2.5 h prior to experiment termination. At the end of the incubation, the medium was removed, and the formazan crystals were dissolved in 50 µL of DMSO. Absorbance was measured at 550 nm on a microplate reader. IC50 values were calculated using OriginPro 8.5.1. software by nonlinear curve fitting. Selectivity indexes were calculated as the ratio of the IC50 values determined for the nonmalignant and the tumoral cells in the breast cell lines (IC50 (184B5)/IC50 (MDA-MB-231) and IC50 (184B5)/IC50 (MCF-7)). Data were obtained from at least three independent experiments performed in triplicates.

HTB-54 = experiment: Antiproliferative MTT assay, HTB-54 lung cancer cells; type: cell-based, human
Experimental: (§6) The antiproliferative activities of the cinnamyl and benzodioxyl derivatives were assessed against six human cell lines of three different types of cancer (colon, lung, and breast) using the 3-(4,5-dimethylthiazol-2-yl)-2,5-diphenyltetrazolium bromide (MTT) assay at seven concentrations for 48 h. The results are expressed as the IC50 values and are outlined in Table 1.
as §4, §5

E. coli = experiment: MIC and MBC assay, E. coli; type: cell-based, Escherichia coli; conditions: Gram-negative; for MIC E. coli / MIC: 24 h at 37 °C; for MBC / MIC: Escherichia coli
Experimental: as §1, §2, §3

[1] = tested on: Leishmania major promastigotes; experiment: Parasite viability MTT assay, L. major promastigotes; type: cell-based; conditions: 48 h
Experimental: (§7) The cytotoxic activities of all the derivatives against Leishmania major and Leishmania infantum promastigotes were studied by the MTT assay after exposing the parasites to five different concentrations of each compound for 48 h. Miltefosine and paromomycin, two currently available drugs for the treatment of leishmaniasis, were used as positive controls.
(§8) L. major (clone VI, MHOM/IL/80/Friendlin) and L. infantum (BCN-150) promastigotes were grown in continuous stirred M199 1X medium (Sigma, St Louis, MO, USA) at 26 °C supplemented with 25 mM HEPES (pH 7.2), 10% heat-inactivated FBS (Gibco, Gaithersburg, MD, USA), 0.1 mM adenine, 0.0005% (w/v) hemin, 0.0001% (w/v) biotin, 100 UI/mL penicillin and […] streptomycin (Gibco, Gaithersburg, MD, USA). Media were changed before each experiment to achieve exponential growth.
(§9) The antileishmanial activity was assessed by the MTT assay as previously described. Briefly, 3 × 10^6 promastigotes of both Leishmania strains were placed into a 96-well plate with supplemented M199 1X medium during their logarithmic growth phase. The parasites were treated with five increasing concentrations of the compounds ranging between 0.1 and 1000 µM at 26 °C for 48 h. At the termination point, 20 µL of MTT (5 mg/mL) was added and further incubated for 4 h. The resultant formazan crystals formed were dissolved in 80 µL of DMSO and the absorbance was measured at 550 nm on a microplate reader. IC50 values were calculated using OriginPro 8.5.1. software by nonlinear curve fitting. Miltefosine and paromomycin were used as reference drugs. Data were obtained from at least three independent experiments performed in triplicates.

S. aureus = experiment: MIC and MBC assay, S. aureus; type: cell-based, Staphylococcus aureus; conditions: Gram-positive; for MIC S. aureus / MIC: 24 h at 37 °C; for MBC / MIC: Staphylococcus aureus
Experimental: as §1, §2, §3

[2] = tested on: Leishmania infantum promastigotes; experiment: Parasite viability MTT assay, L. infantum promastigotes; type: cell-based; conditions: 48 h
Experimental: as §7, §8, §9

HT-29 = experiment: Antiproliferative MTT assay, HT-29 colon cancer cells; type: cell-based, human
Experimental: as §6, §4, §5

C. freundii = experiment: MIC and MBC assay, C. freundii; type: cell-based, Citrobacter freundii; conditions: for MIC / MBC: Citrobacter freundii; for MIC: read-out: MIC C. freundii; for MBC: read-out: MBC C. freundii
Experimental: as §1, §2, §3

[3] = nontumorigenic cells, MTT assay, 48 h, mean ± SD
[4] = MTT assay, 48 h, mean ± SD, read-out: IC50 HTB-54
[5] = promastigotes, MTT assay, mean ± SD, read-out: IC50 Leishmania major
[6] = promastigotes, MTT assay, mean ± SD, read-out: IC50 Leishmania infantum
[7] = MTT assay, 48 h, mean ± SD, read-out: IC50 HT-29
[8] = Homo sapiens, 184B5, 48 h, nontumorigenic cells, MTT assay, 48 h, mean ± SD
[9] = Homo sapiens, HTB-54, MTT assay, 48 h, mean ± SD, read-out: IC50 HTB-54
[10] = Leishmania major, promastigotes, MTT assay, mean ± SD, read-out: IC50 Leishmania major
[11] = Leishmania infantum, promastigotes, MTT assay, mean ± SD, read-out: IC50 Leishmania infantum
[12] = Homo sapiens, HT-29, 48 h, MTT assay, 48 h, mean ± SD, read-out: IC50 HT-29

Row | Structure (SMILES) | MIC S. epidermidis (S. epidermidis; Gram-positive, 24 h at 37 °C) | IC50 (184B5; [3]) | IC50 (HTB-54; [4]) | MIC E. coli (E. coli) | IC50 [1, 5] | MIC S. aureus (S. aureus) | IC50 [2, 6] | IC50 (HT-29; [7]) | MIC C. freundii (C. freundii; Gram-negative, 24 h at 37 °C) | MBC (E. coli) | MIC (E. coli) | MBC (S. aureus) | MIC (S. aureus) | MIC (S. epidermidis; Gram-positive, 24 h at 37 °C) | IC50 (184B5; [8]) | IC50 (HTB-54; [9]) | IC50 [1, 10] | IC50 [2, 11] | IC50 (HT-29; [12]) | MIC (C. freundii; Gram-negative, 24 h at 37 °C) | also measured
1 | O=C(CC[Se]Cc1ccc2c(c1)OCO2)[c-]1cccc1.[Fe+2].c1cc[cH-]c1 [Compound 2c, 3-((Benzo[d][1,3]dioxol-5-ylmethyl)selanyl)-1-ferrocenylpropan-1-one] | >200 µg/mL | 50.1 ± 4.5 µM | 29.7 ± 2.9 µM | >200 µg/mL | 11.2 ± 3 µM | >200 µg/mL | 7.2 ± 3.6 µM | 21.4 ± 4.3 µM | >200 µg/mL | – | – | – | – | – | – | – | – | – | – | – | –
2 | N#C[Se]C/C=C/c1ccccc1 [Compound 1a, (E)-(3-selenocyanatoprop-1-en-1-yl)benzene] | – | – | – | – | – | – | – | – | – | > 200 µg/mL | 100 µg/mL (≈ 450 µM) | 50 µg/mL (≈ 225 µM) | 50 µg/mL (≈ 225 µM) | – | – | – | – | – | – | – | MIC (S. epidermidis; 24 h): 12.5 µg/mL (≈ 56.3 µM); MBC (S. epidermidis): 12.5 µg/mL (≈ 56.3 µM); IC50 (184B5; Homo sapiens, 184B5, 48 h): 55 ± 6.7 µM; IC50 (HTB-54; Homo sapiens, HTB-54, 48 h, read-out: IC50 HTB-54, MTT assay, 48 h, mean ± SD): > 50 µM; IC50 (HTB-54; read-out: IC50 HTB-54, MTT assay, 48 h, mean ± SD): 58.7 ± 9 µM; IC50 ([1]; Leishmania major, read-out: IC50 Leishmania major, promastigotes, MTT assay, 48 h, mean ± SD): < 5 µM; IC50 ([1]; read-out: IC50 Leishmania major, promastigotes, MTT assay, mean ± SD): 4.6 ± 1.7 µM; IC50 ([2]; Leishmania infantum, read-out: IC50 Leishmania infantum, promastigotes, MTT assay, 48 h, mean ± SD): < 5 µM; IC50 ([2]; read-out: IC50 Leishmania infantum, promastigotes, MTT assay, mean ± SD): 3.3 ± 1.8 µM; IC50 (HT-29; Homo sapiens, HT-29, 48 h, read-out: IC50 HT-29, MTT assay, 48 h, mean ± SD): > 50 µM; IC50 (HT-29; read-out: IC50 HT-29, MTT assay, 48 h, mean ± SD): 61.2 ± 9.7 µM; MIC (C. freundii; 24 h): 100 µg/mL (≈ 450 µM); MBC (C. freundii): 100 µg/mL (≈ 450 µM)
3 | N#C[Se]Cc1ccc2c(c1)OCO2 [Compound 2a, 5-(Selenocyanatomethyl)benzo[d][1,3]dioxole] | ≤ 25 µg/mL | 48.6 ± 2.1 µM | – | – | 3.3 ± 0.9 µM | ≤ 25 µg/mL | 3.7 ± 0.1 µM | 11.9 ± 3.4 µM | – | 50 µg/mL (≈ 208 µM) | 50 µg/mL (≈ 208 µM) | > 200 µg/mL | 25 µg/mL (≈ 104 µM) | 12.5 µg/mL (≈ 52.1 µM) | ~50 µM | 45.2 ± 8.2 µM | < 5 µM | < 5 µM | < 12 µM | 100 µg/mL (≈ 416 µM) | MBC (S. epidermidis; Gram-positive): 12.5 µg/mL (≈ 52.1 µM); MBC S. aureus (S. aureus): could not be obtained; MBC (C. freundii; Gram-negative): 100 µg/mL (≈ 416 µM)
4 | C(=C\c1ccccc1)/C[Se][Se]C/C=C/c1ccccc1 [Compound 1b, 1,2-Dicinnamyldiselenide] | – | – | – | – | – | – | – | 36 ± 5.4 µM | – | – | > 200 µg/mL | – | > 200 µg/mL | > 200 µg/mL | > 100 µM | 50.1 ± 5.9 µM | 47.6 ± 16 µM | 39.4 ± 5.1 µM | < 40 µM | > 200 µg/mL | IC50 184B5 (184B5; [3]): not toxic
5 | O=C(CC[Se]CC=Cc1ccccc1)[c-]1cccc1.[Fe+2].c1cc[cH-]c1 [Compound 1c, 3-(Cinnamylselanyl)-1-ferrocenylpropan-1-one] | >200 µg/mL | 24.6 ± 0.4 µM | 32.3 ± 3.2 µM | >200 µg/mL | 25.8 ± 2.7 µM | >200 µg/mL | 23.2 ± 10.7 µM | > 100 µM | >200 µg/mL | – | – | – | – | – | – | – | – | – | – | – | –
